Experimental data reported in article PMC9496563, “Functional Evaluation and Nephrotoxicity Assessment of Human Renal Proximal Tubule Cells on a Chip” (Biosensors, 2022).
pIC50: −log10 of the molar value. Read-outs that look alike come from different tables or passages of the source.

Tests used:
HK2 cells [1] = test: cells; type: cell-based; settings: HK2 cells on the iBAC, 48 h; for pIC50: Homo sapiens, HK-2, apical side, read-out: IC50 (cell viability)
Experimental: (§1) After the microdevice was assembled, it was exposed to ultraviolet light for 30 min. The porous membrane was coated with collagen type I hydrogel at 37 °C for 2 h. The hRPTECs or HK2 cells (2 × 10^5 cells/ cm^2) were seeded on the lower microfluidic channel and incubated upside down at 37 °C for 2 h, allowing the seeded hRPTECs or HK2 cells to attach to the porous membrane surface. Then, 100 μL of the culture medium was added to each chamber and the device was placed on the iBAC Rocker (MR100110, Daxiang biotech, Beijing, China) for dynamic culture.
(§2) The Live/Dead kit (Thermo Fisher, Waltham, MA, USA), LDH kit (Life Technologies, Paisley, UK) and CellTiter-Glo (Promega, Madison, WI, USA) were used to evaluate cell viability on the iBAC. These assays were performed on test compound-treated monolayers following the manufacturer’s instructions. The assay protocols are described briefly here. In the live/dead cell assay, the cells were incubated with the live/dead cell imaging reagents for 15–30 min at 37 °C and observed under a fluorescent microscope. The viable cells were stained green, while the dead ones were stained red. In the CellTiter-Glo luminescent cell viability assay, the cells were incubated with the CellTiter-Glo reagents for 30 min at room temperature and detected with a microplate reader. For the LDH assay, 50 μL of medium from each well of the treatment plates was transferred into fresh 96-well plates and an equal volume of LDH reaction mixture was added. The samples were incubated at room temperature for 30 min before the reaction was stopped by adding 50 μL of stop solution. The absorbance was then taken at 490 nm and 680 nm using a microplate reader (BMG Labtech, Germany).

hRPTECs [2] = type: cell-based
Experimental: as §1, §2

hRPTECs [3] = test: Active absorption (Papp) through hRPTECs on the static Transwell; type: in vitro ADME, human; settings: day 4
Experimental: (§3) After two hours of dynamic absorption, the sample concentrations of FITC-albumin (Ex = 495 nm, Em = 535 nm), ASP+ (Ex = 474 nm, Em = 606 nm) and 5−CF (Ex = 490 nm, Em = 515 nm) were detected by using a microplate reader (BMG Labtech, Germany).
(§4) The Papp was calculated using the equation below:Papp [cm/s] = (1/AC0)(dQ/dt) where A = area of mass transfer, C0 = donor concentration of reagent in the upper medium, and dQ/dt = transmembrane transportation rate.

HK2 cells [4] = test: Active absorption (Papp) through HK2 model on the iBAC; type: in vitro ADME, human; settings: day 4
Experimental: as §1, §3, §4

hRPTECs [5] = test: Active absorption (Papp) through hRPTECs on the iBAC; type: in vitro ADME, human; settings: for Papp value: hRPTECs on the iBAC, day 4, two hours of dynamic absorption, FITC-albumin (Megalin/Cubilin), ASP+ (OCT2), 5-CF (OAT1)
Experimental: as §1, §3, §4

hRPTECs [6] = type: cell-based, human; settings: hRPTECs on the iBAC, 24 h
Experimental: as §1
as §2, with “The viable cells were stained green, while the dead ones were stained red.” left out, “For the LDH assay, 50 μL of medium from each well of the treatment plates was transferred into fresh 96-well plates and an equal volume of LDH reaction mixture was added. The samples were incubated at room temperature for 30 min before the reaction was stopped by adding 50 μL of stop solution.” left out

HK2 cells [7] = test: LDH release from HK2 cells on the iBAC; type: cell-based, human; settings: 24 h
Experimental: as §1
as §2, with “The viable cells were stained green, while the dead ones were stained red.” left out, “For the LDH assay, 50 μL of medium from each well of the treatment plates was transferred into fresh 96-well plates and an equal volume of LDH reaction mixture was added. The samples were incubated at room temperature for 30 min before the reaction was stopped by adding 50 μL of stop solution.” left out

BCRP [8] = biological target: T1, BCRP (Homo sapiens, UniProt Q9UNQ0); test: BCRP efflux function (DiOC2 with or without Ko143), hRPTECs on the iBAC; type: in vitro ADME
T1 sequence (Q9UNQ0 1-655): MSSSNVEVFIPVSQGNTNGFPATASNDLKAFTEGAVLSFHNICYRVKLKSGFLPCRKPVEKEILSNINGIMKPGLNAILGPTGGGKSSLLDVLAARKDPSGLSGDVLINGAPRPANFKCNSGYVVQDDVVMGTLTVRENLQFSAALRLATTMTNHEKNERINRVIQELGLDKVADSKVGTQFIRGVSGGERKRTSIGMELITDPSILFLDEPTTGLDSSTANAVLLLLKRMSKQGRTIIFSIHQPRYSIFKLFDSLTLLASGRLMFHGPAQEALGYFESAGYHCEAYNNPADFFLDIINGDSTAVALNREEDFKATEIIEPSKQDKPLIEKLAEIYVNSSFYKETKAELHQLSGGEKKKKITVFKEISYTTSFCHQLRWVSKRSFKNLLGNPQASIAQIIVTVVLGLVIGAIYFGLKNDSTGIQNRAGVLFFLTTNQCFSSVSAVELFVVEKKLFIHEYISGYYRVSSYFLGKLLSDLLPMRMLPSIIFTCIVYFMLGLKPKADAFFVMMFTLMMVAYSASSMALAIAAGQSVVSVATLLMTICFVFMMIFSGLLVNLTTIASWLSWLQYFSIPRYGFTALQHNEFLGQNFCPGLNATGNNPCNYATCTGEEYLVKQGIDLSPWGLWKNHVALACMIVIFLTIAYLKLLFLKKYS
Experimental: as §4

BCRP [9] = biological target: T1, BCRP; test: BCRP efflux function (DiOC2 with or without Ko143), HK2 model on the iBAC; type: in vitro ADME; settings: without inhibitor
Experimental: as §4

P-gp [10] = biological target: T2, P-gp (Homo sapiens, UniProt P08183); test: P-gp efflux function (rhodamine 123 with or without verapamil), hRPTECs on the iBAC; settings: hRPTECs model, without inhibitor
P-gp [11] = biological target: T2, P-gp; test: in vitro
P-gp [12] = biological target: T2, P-gp; test: P-gp efflux function (rhodamine 123 with or without verapamil), HK2 model on the iBAC; settings: without inhibitor

T2 sequence (P08183 whole entry): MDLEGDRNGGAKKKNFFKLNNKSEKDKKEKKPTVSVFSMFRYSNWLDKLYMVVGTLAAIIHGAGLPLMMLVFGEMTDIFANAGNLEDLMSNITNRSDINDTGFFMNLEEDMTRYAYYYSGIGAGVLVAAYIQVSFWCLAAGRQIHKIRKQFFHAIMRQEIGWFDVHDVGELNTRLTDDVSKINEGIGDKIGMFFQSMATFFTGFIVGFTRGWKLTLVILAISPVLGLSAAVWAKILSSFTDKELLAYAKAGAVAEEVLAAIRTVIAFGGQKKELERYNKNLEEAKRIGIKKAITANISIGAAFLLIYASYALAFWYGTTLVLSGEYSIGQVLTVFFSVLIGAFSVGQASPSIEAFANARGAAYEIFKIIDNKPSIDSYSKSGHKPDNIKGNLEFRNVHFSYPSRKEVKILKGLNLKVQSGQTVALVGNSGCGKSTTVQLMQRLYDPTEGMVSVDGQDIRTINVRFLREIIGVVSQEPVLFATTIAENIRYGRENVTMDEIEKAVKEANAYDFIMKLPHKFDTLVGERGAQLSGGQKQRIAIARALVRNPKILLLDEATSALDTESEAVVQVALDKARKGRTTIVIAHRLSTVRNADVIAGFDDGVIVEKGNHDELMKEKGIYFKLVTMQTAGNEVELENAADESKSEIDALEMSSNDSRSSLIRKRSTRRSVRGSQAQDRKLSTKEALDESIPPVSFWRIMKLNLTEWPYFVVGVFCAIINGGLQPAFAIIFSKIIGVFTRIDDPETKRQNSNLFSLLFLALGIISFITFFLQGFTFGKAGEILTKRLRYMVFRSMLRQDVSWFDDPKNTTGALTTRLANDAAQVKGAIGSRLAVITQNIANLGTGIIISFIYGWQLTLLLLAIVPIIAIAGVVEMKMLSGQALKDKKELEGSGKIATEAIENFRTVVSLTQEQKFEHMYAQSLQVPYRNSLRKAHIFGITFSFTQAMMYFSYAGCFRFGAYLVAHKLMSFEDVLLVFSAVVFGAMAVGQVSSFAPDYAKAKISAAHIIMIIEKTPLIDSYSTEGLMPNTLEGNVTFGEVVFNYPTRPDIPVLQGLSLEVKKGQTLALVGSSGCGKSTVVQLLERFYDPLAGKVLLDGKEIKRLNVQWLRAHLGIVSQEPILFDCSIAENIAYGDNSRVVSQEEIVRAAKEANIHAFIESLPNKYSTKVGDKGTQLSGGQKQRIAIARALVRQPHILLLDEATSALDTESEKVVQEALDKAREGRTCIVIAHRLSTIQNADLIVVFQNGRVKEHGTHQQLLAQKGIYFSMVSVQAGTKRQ

COc1cccc2c1C(=O)c1c(O)c3c(c(O)c1C2=O)C[C@@](O)(C(=O)CO)C[C@@H]3O[C@H]1C[C@H](N)[C@H](O)[C@H](C)O1 [doxorubicin]
pIC50 (HK2 cells [1]): 4.85
Toxicity on the apical side (cell viability) (hRPTECs [2]): induced toxicity
Toxicity on the basal side (cell viability) (hRPTECs [2]): only induced nephrotoxicity on the apical side dosing

5(6)-Carboxyfluorescein [5−CF]
Papp value (hRPTECs [3]): 0.002 ×10⁻⁶ cm/s
Papp value (HK2 cells [4]): 0.009 ×10⁻⁶ cm/s
Papp value (hRPTECs [5]): 0.039 ×10⁻⁶ cm/s

CN(C)c1ccc(/C=C/c2cc[n+](C)cc2)cc1.[I-] [ASP+, 4-Di-1-ASP]
Papp value (HK2 cells [4]): 2.3 ×10⁻⁶ cm/s
Papp value (hRPTECs [5]): 9.2 ×10⁻⁶ cm/s
Papp value, iBAC compared with Transwell (hRPTECs [5]; hRPTECs, day 4): significantly higher than that on the Transwell

CN/C(=N/CCSCc1nc[nH]c1C)NC#N [cimetidine, Cimetidine]
Relative LDH release with cisplatin in the presence of the cimetidine (hRPTECs [6]): 93%
Relative LDH release with cisplatin in the presence of the cimetidine (HK2 cells [7]): 109%

polymyxin B
Toxicity on both sides (cell viability) (HK2 cells [1]; apical and basal administration): not toxic
Toxicity on the apical side (cell viability) (hRPTECs [2]; hRPTECs on the iBAC, apical administration, 48 h): induced toxicity
Toxicity on the basal side (cell viability) (hRPTECs [2]; hRPTECs on the iBAC, basal administration, 48 h): induced toxicity

CCN1/C(=C/C=C/c2oc3ccccc3[n+]2CC)Oc2ccccc21.[I-] [DiOC2]
Cumulative amount of substrate in cells (BCRP [8]; hRPTECs model, without inhibitor): very low
Papp value of DiOC2 without Ko143 (BCRP [8]; hRPTECs on the iBAC, DiOC2 10 μM): 4.6 ×10⁻⁶ cm/s
Papp value of DiOC2 with Ko143 (BCRP [8]; hRPTECs on the iBAC, DiOC2 10 μM, Ko143 10 μM): 4.1 ×10⁻⁶ cm/s
Cumulative amount of substrate in cells (BCRP [9]): very low

CCN(CC)CCNC(=O)c1c(C)[nH]c(/C=C2\C(=O)Nc3ccc(F)cc32)c1C [sunitinib]
pIC50 (HK2 cells [1]): 4.54
Toxicity on the apical side (cell viability) (hRPTECs [2]): induced toxicity
Toxicity on the basal side (cell viability) (hRPTECs [2]): only induced nephrotoxicity on the apical side dosing

COC(=O)c1ccccc1-c1c2ccc(=N)cc-2oc2cc(N)ccc12 [rhodamine 123, Rhodamine 123]
Cumulative amount of substrate in cells (P-gp [10]): very low
Papp at 2 h, 2 μM (P-gp [11]): 13 ×10⁻⁶ cm/s
Cumulative amount of substrate in cells (P-gp [12]): very low
